Legend:
[1] = test system: Glomerella lagenarium (Colletotrichum lagenarium); experiment: Glomerella lagenarium (Colletotrichum lagenarium) / liquid culture (anthracnose); format: cell-based; details: Colletotrichum orbiculare; read-out: control of Glomerella lagenarium
Fusarium culmorum [2] = experiment: whole plant or invertebrate; format: in vivo; details: in Triticum aestivum, read-out: control of Fusarium culmorum
[3] = test system: Magnaporthe grisea (Pyricularia oryzae); experiment: microbe, parasite or virus in culture; format: cell-based; details: 72 h, read-out: control of Magnaporthe grisea
[4] = test system: Botryotinia fuckeliana (Botrytis cinerea); experiment: Botryotinia fuckeliana (Botrytis cinerea) / liquid culture (gray mould); format: cell-based; details: 72 h, read-out: control of Botryotinia fuckeliana
Fusarium culmorum [5] = experiment: microbe, parasite or virus in culture; format: cell-based; details: read-out: control of Fusarium culmorum
[6] = test system: Monographella nivalis (Microdochium nivale); experiment: Monographella nivalis (Microdochium nivale) / liquid culture (foot rot cereals); format: cell-based; details: 96 h, read-out: control of Monographella nivalis

| SMILES | inhibition of growth at 200 ppm [1] | pest or weed control at 200 ppm (Fusarium culmorum [2]) | inhibition of growth at 200 ppm [3] | inhibition of growth at 200 ppm [4] | inhibition of growth at 200 ppm (Fusarium culmorum [5]) | melting point | inhibition of growth at 200 ppm [6] |
| --- | --- | --- | --- | --- | --- | --- | --- |
| CC(Cc1ccccc1)(CC(F)(F)F)NC(=O)c1cnc2cc(Cl)ccc2c1 (stereo not drawn) [Compound E-69, N-(1-benzyl-3,3,3-trifluoro-1-methyl-propyl)-7-chloro-quinoline-3-carboxamide] | ≥ 80% | ≥ 80% | ≥ 80% | ≥ 80% | ≥ 80% | 174 to 176 °C | – |
| CC(Cc1ccccc1)(CC(F)(F)F)NC(=O)c1cnc2c(C#N)cccc2c1 (stereo not drawn) [Compound E-62, N-(1-benzyl-3,3,3-trifluoro-1-methyl-propyl)-8-cyano-quinoline-3-carboxamide] | ≥ 80% | ≥ 80% | ≥ 80% | ≥ 80% | ≥ 80% | 175 to 179 °C | – |
| CC(F)(F)C[C@@](C)(Cc1ccccc1)NC(=O)c1cnc2c(F)cccc2c1 [Compound F-40, N-[(1R)-1-benzyl-3,3-difluoro-1-methyl-butyl]-8-fluoro-quinoline-3-carboxamide] | ≥ 80% | ≥ 80% | ≥ 80% | ≥ 80% | ≥ 80% | – | – |
| CC(C)CC(C)(Cc1ccccc1C#N)NC(=O)c1cnc2c(F)cccc2c1 (stereo not drawn) [Compound E-44, N-[1-[(2-cyanophenyl)methyl]-1,3-dimethyl-butyl]-8-fluoro-quinoline-3-carboxamide] | ≥ 80% | ≥ 80% | ≥ 80% | ≥ 80% | ≥ 80% | 43 to 44 °C | – |
| CC(C)CC(C)(Cc1ccccc1)NC(=O)c1cnc2cc(Cl)ccc2c1 (stereo not drawn) [Compound E-65, N-(1-benzyl-1,3-dimethyl-butyl)-7-chloro-quinoline-3-carboxamide] | – | – | ≥ 80% | ≥ 80% | ≥ 80% | 172 to 174 °C | – |
| CC(C)CC(C)(Cc1ccc(C#N)cc1)NC(=O)c1cnc2c(F)cccc2c1 (stereo not drawn) [Compound E-32, N-[1-[(4-cyanophenyl)methyl]-1,3-dimethyl-butyl]-8-fluoro-quinoline-3-carboxamide] | ≥ 80% | – | ≥ 80% | ≥ 80% | ≥ 80% | 67 to 69 °C | – |
| COc1cccc2cc(C(=O)NC(C)(Cc3ccccc3)CC(C)C)cnc12 (stereo not drawn) [Compound E-123, N-(1-benzyl-1,3-dimethyl-butyl)-8-methoxy-quinoline-3-carboxamide] | – | – | – | ≥ 80% | ≥ 80% | 155 to 156 °C | ≥ 80% |
| COc1ccc2cc(C(=O)NC(C)(Cc3ccccc3)CC(C)C)cnc2c1 (stereo not drawn) [Compound E-122, N-(1-benzyl-1,3-dimethyl-butyl)-7-methoxy-quinoline-3-carboxamide] | – | – | – | – | – | 136 to 138 °C | ≥ 80% |
| CC(Cc1cccc(F)c1)(CC(F)(F)F)NC(=O)c1cnc2c(F)cccc2c1 (stereo not drawn) [Compound E-99, 8-fluoro-N-[3,3,3-trifluoro-1-[(3-fluorophenyl)methyl]-1-methyl-propyl]quinoline-3-carboxamide] | ≥ 80% | ≥ 80% | – | ≥ 80% | ≥ 80% | 149 to 151 °C | ≥ 80% |
| C=CCC(Cc1ccccc1)(NC(=O)c1cnc2c(F)cccc2c1)C(F)(F)F (stereo not drawn) [Compound E-92, N-[1-benzyl-1-(trifluoromethyl)but-3-enyl]-8-fluoro-quinoline-3-carboxamide] | ≥ 80% | ≥ 80% | – | ≥ 80% | ≥ 80% | – | ≥ 80% |
| Cc1c(C(=O)N[C@@](C)(Cc2ccccc2)CC(F)(F)F)cnc2c(F)cccc12 [Compound F-29, N-[(1S)-1-benzyl-3,3,3-trifluoro-1-methyl-propyl]-8-fluoro-4-methyl-quinoline-3-carboxamide] | ≥ 80% | ≥ 80% | – | ≥ 80% | ≥ 80% | – | ≥ 80% |
| COC(C)(C)CC(C)(Cc1ccccc1)NC(=O)c1cnc2c(F)cccc2c1 (stereo not drawn) [Compound E-118, N-(1-benzyl-3-methoxy-1,3-dimethyl-butyl)-8-fluoro-quinoline-3-carboxamide] | ≥ 80% | – | – | ≥ 80% | ≥ 80% | 118 to 120 °C | ≥ 80% |
| CC(F)(F)CC(C)(Cc1ccccc1)NC(=O)c1cnc2c(F)cccc2c1 (stereo not drawn) [Compound E-50, N-(1-benzyl-3,3-difluoro-1-methyl-butyl)-8-fluoro-quinoline-3-carboxamide] | ≥ 80% | ≥ 80% | ≥ 80% | ≥ 80% | ≥ 80% | – | – |
| C=C(C)CC(C)(NC(=O)c1cnc2c(F)cccc2c1)C(F)(F)c1ccccc1 (stereo not drawn) [Compound E-51, N-[1-[difluoro(phenyl)methyl]-1,3-dimethyl-but-3-enyl]-8-fluoro-quinoline-3-carboxamide] | ≥ 80% | ≥ 80% | ≥ 80% | ≥ 80% | ≥ 80% | – | – |
| O=C(NC(CCC(F)(F)F)Cc1ccccc1)c1cnc2c(F)cccc2c1 (stereo not drawn) [Compound E-16, N-(1-benzyl-4,4,4-trifluoro-butyl)-8-fluoro-quinoline-3-carboxamide] | – | ≥ 80% | ≥ 80% | ≥ 80% | ≥ 80% | 157 to 161 °C | – |
| C[C@@](Cc1ccccc1)(CC(F)(F)F)NC(=O)c1cnc2c(F)c(F)ccc2c1 [Compound F-38, N-[(1R)-1-benzyl-3,3,3-trifluoro-1-methyl-propyl]-7,8-difluoro-quinoline-3-carboxamide] | ≥ 80% | – | ≥ 80% | ≥ 80% | ≥ 80% | – | – |
| C=C(C)C[C@@](C)(Cc1ccccc1)NC(=O)c1cnc2c(F)cccc2c1 [Compound F-9, N-[(1S)-1-benzyl-1,3-dimethyl-but-3-enyl]-8-fluoro-quinoline-3-carboxamide] | ≥ 80% | ≥ 80% | – | ≥ 80% | ≥ 80% | – | ≥ 80% |
| C[C@](Cc1ccccc1)(CC(F)(F)F)NC(=O)c1cnc2c(F)c(F)ccc2c1 [Compound F-37, N-[(1S)-1-benzyl-3,3,3-trifluoro-1-methyl-propyl]-7,8-difluoro-quinoline-3-carboxamide] | ≥ 80% | ≥ 80% | ≥ 80% | ≥ 80% | ≥ 80% | – | – |
| CC(C)(F)C[C@@](C)(Cc1ccccc1)NC(=O)c1cnc2c(F)cccc2c1 [Compound F-23, N-[(1R)-1-benzyl-3-fluoro-1,3-dimethyl-butyl]-8-fluoro-quinoline-3-carboxamide] | ≥ 80% | ≥ 80% | – | ≥ 80% | ≥ 80% | – | ≥ 80% |
| Cc1cccc2cc(C(=O)N[C@@](C)(Cc3ccccc3)CC(F)(F)F)cnc12 [Compound F-27, N-[(1S)-1-benzyl-3,3,3-trifluoro-1-methyl-propyl]-8-methyl-quinoline-3-carboxamide] | ≥ 80% | ≥ 80% | – | ≥ 80% | ≥ 80% | – | ≥ 80% |
| C=C(C)CC(COC)(Cc1ccccc1)NC(=O)c1cnc2c(F)cccc2c1 (stereo not drawn) [Compound E-103, N-[1-benzyl-1-(methoxymethyl)-3-methyl-but-3-enyl]-8-fluoro-quinoline-3-carboxamide] | ≥ 80% | ≥ 80% | – | ≥ 80% | ≥ 80% | 147 to 149 °C | ≥ 80% |
| CC(F)(F)C[C@](C)(Cc1ccccc1)NC(=O)c1cnc2ccccc2c1 [Compound F-25, N-[(1S)-1-benzyl-3,3-difluoro-1-methyl-butyl]quinoline-3-carboxamide] | ≥ 80% | ≥ 80% | – | ≥ 80% | ≥ 80% | – | ≥ 80% |
| CC(F)(F)CC(C)(Cc1ccccc1)NC(=O)c1cnc2ccccc2c1 (stereo not drawn) [Compound E-52, N-(1-benzyl-3,3-difluoro-1-methyl-butyl)quinoline-3-carboxamide] | ≥ 80% | ≥ 80% | ≥ 80% | ≥ 80% | ≥ 80% | 131 to 133 °C | – |
| CC(Cc1ccccc1)(CC1CCC1)NC(=O)c1cnc2c(F)cccc2c1 (stereo not drawn) [Compound E-112, N-(1-benzyl-2-cyclobutyl-1-methyl-ethyl)-8-fluoro-quinoline-3-carboxamide] | ≥ 80% | – | – | ≥ 80% | ≥ 80% | 125 to 127 °C | ≥ 80% |

— US10477864B2, “Microbiocidal quinoline (thio)carboxamide derivatives” (priority 2016, dated 2019)
